Test results published in patent US6001829A, “Fluoropropenyl oxadiazoles and the use thereof as pest control agents” (Bayer Aktiengesellschaft, priority 1995, dated 1999).
Like-named read-outs stand apart in the source and are kept apart here.

How the values were obtained:
[1] = tested on: caterpillars of the diamond back moth (Plutella xylostella); experiment: Plutella Test; format: in vivo; conditions: 168 h, 0.1% active compound, after 7 days, dipped cabbage leaves, read-out: kill
Protocol: (§1) Solvent: 7 parts by weight of dimethylformamide
(§2) Emulsifier: 1 part by weight of alkylaryl polyglycol ether
(§3) To produce a suitable preparation of active compound, 1 part by weight of active compound is mixed with the stated amount of solvent and the stated amount of emulsifier, and the concentrate is diluted with water to the desired concentration.
Cabbage leaves (Brassica oleracea) are treated by being dipped into the active compound preparation of the desired concentration and are populated with caterpillars of the diamond back moth (Plutella xylostella) while the leaves are still moist.
(§4) After the desired period of time, the kill in % is determined. 100% means that all the caterpillars have been killed, 0% means that none of the caterpillars have been killed.

[2] = log p: n-octanol/water partition coefficient determined by reverse phase HPLC analysis using H2O/CH3CN; format: physicochemical
Source text: *log p: logarithm to base ten of the noctanol/water partition coefficient
determined by reverse phase HPLC analysis using H2 O/CH3 CN.

[3] = tested on: larvae of the green rice leaf hopper (Nephotettix cincticeps); experiment: Nephotettix Test; format: in vivo; conditions: 144 h, read-out: kill
Protocol: as §1, §2, §3
Rice seedlings (Oryzae sativa) are treated by being dipped into the active compound preparation of the desired concentration and are populated with larvae of the green rice leaf hopper (Nephotettix cincticeps) while the seedlings are still moist.
After the desired period of time, the kill in % is determined. 100% means that all the leaf hoppers have been killed; 0% means that none of the leaf hoppers have been killed.

[4] = tested on: caterpillars of the owlet moth Spodoptera frugiperda; experiment: Spodoptera Test; format: in vivo; conditions: 168 h, 0.1% active compound, after 7 days, dipped cabbage leaves, read-out: kill
Protocol: as §1, §2, §3
Cabbage leaves (Brassica oleracea) are treated by being dipped into the active compound preparation of the desired concentration and are populated with caterpillars of the owlet moth Spodoptera frugiperda) while the leaves are still moist.
as §4

[5] = tested on: all larval stages of Lucilia cuprina (OP resistent); experiment: Test with Fly Larvae/Development-Inhibitory Action; format: in vivo; conditions: 1000 ppm active compound, on horse meat, larvicidal effect after 48 h
Protocol: Test with Fly Larvae/Development-Inhibitory Action
all larval stages of Lucilia cuprina (OP resistent)
[pupae and adults (without contact with the active
Solvent: 35 parts by weight of ethylene glycol monomethyl ether
35 parts by weight of nonylphenol polyglycol ether
To produce a suitable preparation, 3 parts by weight of the active compound are mixed with 7 parts by weight of the abovementioned solvent-emulsifier mixture, and the resulting emulsion concentrate is diluted with water to the concentration desired in each case.
For each concentration, 30 to 50 larvae are introduced into a test tube which contains horse meat (1 cm^3). 500 μl of the dilution to be tested are pipetted onto this horse meat. The test tubes are placed in plastic beakers whose bottom is covered with sea sand, and kept in an air-conditioned room (26° C.±1.5° C., 70%±10% relative humidity). The activity is examined (larvicidal action) after 24 hours and 48 hours. After emergence of the larvae (about 72 h), the test tubes are removed and perforated plastic lids are fitted onto the beakers. After 1.5 times the development time (hatching of control flies), the hatched flies and the pupae/cocoons are counted.
The activity criterion is the incidence of death in the treated larvae after 48 h (larvicidal effect), or the inhibition of hatching of adults from pupae or the inhibition of pupae formation. The criterion for the in vitro activity of a substance is the inhibition of the development of the […], or a development standstill before the adult stage. 100% larvicidal action means that all the larvae have been killed after 48 hours. 100% development-inhibitory action means that no adult flies have hatched.

[6] = tested on: mustard beetle larvae (Phaedon cochleariae); experiment: Phaedon Larvae Test; format: in vivo; conditions: 168 h, 0.1% active compound, after 7 days, dipped cabbage leaves, read-out: kill
Protocol: as §1, §2, §3
Cabbage leaves (Brassica oleracea) are treated by being dipped into the active compound preparation of the desired concentration and are populated with mustard beetle larvae (Phaedon cochleariae) while the leaves are still moist.
After the desired period of time, the kill in % is determined. 100% means that all the beetle larvae have been killed, 0% means that none of the beetle larvae have been killed.

[7] = tested on: black bean aphid (Aphis fabae); experiment: Myzus Test (Duration of Activity after Spraying); format: in vivo; conditions: 0.1% active compound, dipped bean shoots, time not stated, read-out: kill
Protocol: Myzus Test (Duration of Activity after Spraying)
as §1, §2, §3
Bean shoots (Vicia faba) which are heavily infested by the black bean aphid (Aphis fabae) are treated by being dipped into the active compound preparation of the desired concentration.
After the desired period of time, the kill in % is determined. 100% means that all aphids have been killed, 0% means that none of the aphids have been killed.

[8] = tested on: Boophilus Microplus Resistent/SP-Resistent Parkhurst Strain; experiment: Test with Boophilus Microplus Resistent/SP-Resistent Parkhurst Strain; format: in vivo; conditions: 200 μg/animal; injected into the abdomen; adult females which have sucked themselves full
Protocol: Test with Boophilus Microplus Resistent/SP-Resistent Parkhurst Strain
Adult females which have sucked themselves full […]
The test is carried out in 5 replications. I μl of the solutions is injected into the abdomen, and the animals are transferred into dishes and kept in an air-conditioned room. The activity is determined via the inhibition of oviposition. 100% means that no tick has deposited eggs.

Meloidogyne incognita = experiment: Critical Concentration Test/Nematodes; format: in vivo; conditions: 20 ppm active compound in soil; after four weeks; lettuce roots (root galls)
Protocol: Critical Concentration Test/Nematodes
Solvent: 4 parts by weight of acetone
as §2
To produce a suitable preparation of active compound, 1 part by weight of active compound is mixed with the stated amount of solvent, the stated amount of emulsifier is added and the concentrate is diluted with water to the desired concentration.
The active compound preparation is intimately mixed with soil which is heavily infested with the test nematodes. The active compound concentration in the preparation is immaterial, only the amount of active compound per unit volume of soil, which is given in ppm (=mg/l), matters. The treated soil is transferred into pots, lettuce seeds are sown, and the pots are kept at a greenhouse temperature of 25° C.
After four weeks, the lettuce roots are checked for infestation with nematodes (root galls) and the efficacy of the active compound in % is determined. The efficacy is 100% when infestation is avoided completely and 0% when the infestation level is just as high as in the control plants in untreated, but equally infested, soil.

Structure (SMILES)	mortality at 0.1 % strength [1] [%]	chromatographic logP ([2]; pH 2)	mortality at 0.1 % strength [4] [%]	inhibition at 1000 ppm [5] [%]	mortality at 0.1 % strength [6] [%]	chromatographic logP ([2]; pH 7.5)	also measured
FC(F)=C(F)Cc1nc(-c2c(Cl)cccc2Cl)no1 [Example 3]	≥ 90	3.44	≥ 85	100	–	–	mortality at 0.1 % strength ([3]; 0.1% active compound, after 6 days, dipped rice seedlings): 100%
FC(F)=C(F)Cc1nc(-c2ccccc2Cl)no1 [Example 5]	≥ 90	3.3	–	100	–	–	–
FC(F)=C(F)Cc1nc(-c2ccccc2)no1 [Example 7]	≥ 90	3.2	≥ 85	100	100	–	–
FC(F)=C(F)Cc1nnc(-c2ccco2)o1 [Example 9]	–	–	–	–	–	1.89	–
FC(F)=C(F)Cc1nc(CCl)no1 [Example 4]	–	–	–	–	–	–	chromatographic logP ([2]; pH not stated): 2.08
FC(F)=C(F)Cc1nc(-c2cc(Cl)cc(Cl)c2)no1 [Example 6]	–	4.72	–	–	–	–	–
FC(F)=C(F)Cc1nnc(-c2ccc(Cl)cc2)o1 [Example 2, 2-(4-chlorophenyl)-5-(2,3,3-trifluoroprop-2-enyl)-1,3-4-oxadiazole]	≥ 90	–	–	–	100	–	mortality at 0.1 % strength [3]: 100%; mortality at 0.1 % strength [7]: 80%
COc1ccc(-c2nnc(CC(F)=C(F)F)o2)cc1 [Example 8]	≥ 90	–	–	–	–	2.46	–
Cc1ccc(-c2noc(CC(F)=C(F)F)n2)cc1 [Example 1, 3-(4-methylphenyl)-5-(2,3,3-trifluoroprop-2-enyl)-1,2,4-oxadiazole]	≥ 90	–	≥ 85	–	100	–	mortality at 0.1 % strength [3]: 100%; activity (inhibition of oviposition) [8]: 100%; mortality at 0.1 % strength [7]: 90%
FC(F)=C(F)Cc1nnc(-c2cccs2)o1 [Example 10]	–	–	–	–	–	2.19	efficacy (Meloidogyne incognita): 100%
